Assay results reported in US20240139211A1, “METHODS AND COMPOSITIONS FOR TREATING AMYOTROPHIC LATERAL SCLEROSIS” (Amylyx Pharmaceuticals, Inc., priority 2022, published 2024).

How the values were obtained:
OATP1B1 = OATP1B1 (Homo sapiens, UniProt Q9Y6L6); test: Substrate of OATP1B1, uptake in HEK293 cells
Text: (§1) Vector-transfected HEK cells were used as a control.

OATP1B3 = OATP1B3 (Homo sapiens, UniProt Q9NPD5); test: Inhibitor of OATP1B3, probe substrate uptake; conditions: two concentrations per test article
Chain of OATP1B3 (Q9NPD5 whole entry): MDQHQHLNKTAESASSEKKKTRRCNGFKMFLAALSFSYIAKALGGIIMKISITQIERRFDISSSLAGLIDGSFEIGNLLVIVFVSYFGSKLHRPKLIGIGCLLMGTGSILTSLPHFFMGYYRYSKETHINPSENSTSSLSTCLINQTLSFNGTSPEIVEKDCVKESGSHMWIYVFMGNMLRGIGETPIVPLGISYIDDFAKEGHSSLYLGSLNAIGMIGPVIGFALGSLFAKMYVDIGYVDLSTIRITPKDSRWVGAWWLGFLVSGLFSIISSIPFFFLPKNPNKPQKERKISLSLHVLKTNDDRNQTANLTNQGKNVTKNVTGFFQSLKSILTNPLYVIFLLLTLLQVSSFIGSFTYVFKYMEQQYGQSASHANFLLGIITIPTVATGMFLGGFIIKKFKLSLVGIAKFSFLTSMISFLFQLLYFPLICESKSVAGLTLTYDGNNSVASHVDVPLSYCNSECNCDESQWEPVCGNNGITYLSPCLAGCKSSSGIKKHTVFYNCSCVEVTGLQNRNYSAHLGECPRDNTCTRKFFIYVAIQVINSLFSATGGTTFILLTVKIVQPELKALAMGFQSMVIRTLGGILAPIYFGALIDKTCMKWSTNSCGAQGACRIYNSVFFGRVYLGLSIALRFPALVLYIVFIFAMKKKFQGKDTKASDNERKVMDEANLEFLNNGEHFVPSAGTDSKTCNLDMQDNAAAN

OCT2 [1] = biological target: T1, OCT2 (Homo sapiens, UniProt O15244); test: Substrate of OCT2, uptake in HEK293 cells
T1 sequence (O15244 1-555): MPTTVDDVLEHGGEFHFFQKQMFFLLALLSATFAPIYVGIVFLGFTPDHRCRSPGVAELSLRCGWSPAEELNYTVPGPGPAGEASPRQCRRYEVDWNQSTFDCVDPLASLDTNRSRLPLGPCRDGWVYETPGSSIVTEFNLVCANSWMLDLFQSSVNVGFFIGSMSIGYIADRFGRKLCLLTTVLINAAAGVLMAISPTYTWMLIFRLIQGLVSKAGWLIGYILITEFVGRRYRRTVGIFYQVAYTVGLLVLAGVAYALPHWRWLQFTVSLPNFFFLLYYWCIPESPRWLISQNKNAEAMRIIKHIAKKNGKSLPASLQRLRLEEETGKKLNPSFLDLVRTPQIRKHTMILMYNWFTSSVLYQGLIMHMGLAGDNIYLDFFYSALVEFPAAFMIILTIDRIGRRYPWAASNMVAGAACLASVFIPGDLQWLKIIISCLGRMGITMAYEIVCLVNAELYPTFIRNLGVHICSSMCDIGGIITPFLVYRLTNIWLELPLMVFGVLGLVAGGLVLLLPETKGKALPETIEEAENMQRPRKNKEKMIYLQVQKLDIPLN
Text: as §1

BCRP = biological target: T2, BCRP (Homo sapiens, UniProt Q9UNQ0); test: Substrate of BCRP (Caco-2 cells, selective inhibitor)
T2 sequence (Q9UNQ0 1-655): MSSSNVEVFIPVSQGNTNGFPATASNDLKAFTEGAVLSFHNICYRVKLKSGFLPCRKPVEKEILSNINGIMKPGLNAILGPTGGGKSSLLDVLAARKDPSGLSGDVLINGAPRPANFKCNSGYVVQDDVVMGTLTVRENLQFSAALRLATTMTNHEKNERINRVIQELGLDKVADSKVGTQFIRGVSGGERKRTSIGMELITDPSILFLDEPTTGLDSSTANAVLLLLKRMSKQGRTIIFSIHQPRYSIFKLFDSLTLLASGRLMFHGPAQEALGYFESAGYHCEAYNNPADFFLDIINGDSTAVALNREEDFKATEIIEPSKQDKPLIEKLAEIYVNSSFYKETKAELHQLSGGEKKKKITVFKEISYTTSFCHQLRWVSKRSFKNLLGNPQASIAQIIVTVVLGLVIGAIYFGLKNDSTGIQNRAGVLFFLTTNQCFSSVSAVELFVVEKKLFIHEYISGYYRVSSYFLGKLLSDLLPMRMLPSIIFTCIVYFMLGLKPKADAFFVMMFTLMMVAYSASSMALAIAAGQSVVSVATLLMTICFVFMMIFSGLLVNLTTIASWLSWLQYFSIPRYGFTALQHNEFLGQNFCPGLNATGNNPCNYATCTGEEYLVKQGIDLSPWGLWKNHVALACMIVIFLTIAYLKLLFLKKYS

in vitro = conditions: human, Caco-2
CYP1A2 mRNA = test: CYP1A2 gene expression induction in hepatocyte cultures; conditions: Donor 1
OAT1 = biological target: T3, OAT1 (Homo sapiens, UniProt Q4U2R8); test: Inhibitor of OAT1, probe substrate uptake
T3 sequence (Q4U2R8 1-563): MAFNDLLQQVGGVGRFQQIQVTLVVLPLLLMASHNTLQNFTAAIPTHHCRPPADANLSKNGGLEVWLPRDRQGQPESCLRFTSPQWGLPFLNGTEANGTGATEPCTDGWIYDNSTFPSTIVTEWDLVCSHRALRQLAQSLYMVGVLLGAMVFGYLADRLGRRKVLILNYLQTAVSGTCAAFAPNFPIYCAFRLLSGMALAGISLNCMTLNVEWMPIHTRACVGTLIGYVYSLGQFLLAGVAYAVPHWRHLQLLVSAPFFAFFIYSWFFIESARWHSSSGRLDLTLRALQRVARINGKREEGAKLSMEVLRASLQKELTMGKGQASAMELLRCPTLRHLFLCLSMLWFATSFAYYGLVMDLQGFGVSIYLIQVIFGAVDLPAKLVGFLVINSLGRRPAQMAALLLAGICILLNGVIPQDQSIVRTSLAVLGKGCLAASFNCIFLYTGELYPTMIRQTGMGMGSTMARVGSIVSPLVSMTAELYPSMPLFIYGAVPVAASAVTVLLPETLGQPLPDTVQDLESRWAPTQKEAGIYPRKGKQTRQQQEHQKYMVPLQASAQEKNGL

MATE2K = MATE2K (Homo sapiens, UniProt Q86VL8); test: Substrate of MATE2-K, uptake in HEK293 cells
Chain of MATE2K (Q86VL8 1-566 isoform Q86VL8-3): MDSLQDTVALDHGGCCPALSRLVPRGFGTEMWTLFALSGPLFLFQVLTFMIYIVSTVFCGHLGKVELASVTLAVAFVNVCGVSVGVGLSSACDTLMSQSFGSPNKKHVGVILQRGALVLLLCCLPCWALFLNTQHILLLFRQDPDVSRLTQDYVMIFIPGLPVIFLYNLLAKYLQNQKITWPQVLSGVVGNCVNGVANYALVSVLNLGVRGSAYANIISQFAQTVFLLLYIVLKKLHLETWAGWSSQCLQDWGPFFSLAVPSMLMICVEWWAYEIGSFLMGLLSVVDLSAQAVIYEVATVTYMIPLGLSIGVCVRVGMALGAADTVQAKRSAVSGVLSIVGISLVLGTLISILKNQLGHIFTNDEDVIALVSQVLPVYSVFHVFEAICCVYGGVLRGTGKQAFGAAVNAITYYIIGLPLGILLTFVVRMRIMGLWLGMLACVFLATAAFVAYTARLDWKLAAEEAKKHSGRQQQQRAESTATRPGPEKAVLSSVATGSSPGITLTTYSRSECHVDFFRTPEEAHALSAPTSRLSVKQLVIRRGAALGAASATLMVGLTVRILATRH
Text: as §1

OCT2 [2] = biological target: T1, OCT2; test: Inhibitor of OCT2, probe substrate uptake
human hepatocytes = test: Stability of test articles in hepatocyte cultures; conditions: two concentrations
BSEP = BSEP (Homo sapiens, UniProt O95342); test: Substrate of BSEP; conditions: test article 1 and 10 μM
Chain of BSEP (O95342 whole entry): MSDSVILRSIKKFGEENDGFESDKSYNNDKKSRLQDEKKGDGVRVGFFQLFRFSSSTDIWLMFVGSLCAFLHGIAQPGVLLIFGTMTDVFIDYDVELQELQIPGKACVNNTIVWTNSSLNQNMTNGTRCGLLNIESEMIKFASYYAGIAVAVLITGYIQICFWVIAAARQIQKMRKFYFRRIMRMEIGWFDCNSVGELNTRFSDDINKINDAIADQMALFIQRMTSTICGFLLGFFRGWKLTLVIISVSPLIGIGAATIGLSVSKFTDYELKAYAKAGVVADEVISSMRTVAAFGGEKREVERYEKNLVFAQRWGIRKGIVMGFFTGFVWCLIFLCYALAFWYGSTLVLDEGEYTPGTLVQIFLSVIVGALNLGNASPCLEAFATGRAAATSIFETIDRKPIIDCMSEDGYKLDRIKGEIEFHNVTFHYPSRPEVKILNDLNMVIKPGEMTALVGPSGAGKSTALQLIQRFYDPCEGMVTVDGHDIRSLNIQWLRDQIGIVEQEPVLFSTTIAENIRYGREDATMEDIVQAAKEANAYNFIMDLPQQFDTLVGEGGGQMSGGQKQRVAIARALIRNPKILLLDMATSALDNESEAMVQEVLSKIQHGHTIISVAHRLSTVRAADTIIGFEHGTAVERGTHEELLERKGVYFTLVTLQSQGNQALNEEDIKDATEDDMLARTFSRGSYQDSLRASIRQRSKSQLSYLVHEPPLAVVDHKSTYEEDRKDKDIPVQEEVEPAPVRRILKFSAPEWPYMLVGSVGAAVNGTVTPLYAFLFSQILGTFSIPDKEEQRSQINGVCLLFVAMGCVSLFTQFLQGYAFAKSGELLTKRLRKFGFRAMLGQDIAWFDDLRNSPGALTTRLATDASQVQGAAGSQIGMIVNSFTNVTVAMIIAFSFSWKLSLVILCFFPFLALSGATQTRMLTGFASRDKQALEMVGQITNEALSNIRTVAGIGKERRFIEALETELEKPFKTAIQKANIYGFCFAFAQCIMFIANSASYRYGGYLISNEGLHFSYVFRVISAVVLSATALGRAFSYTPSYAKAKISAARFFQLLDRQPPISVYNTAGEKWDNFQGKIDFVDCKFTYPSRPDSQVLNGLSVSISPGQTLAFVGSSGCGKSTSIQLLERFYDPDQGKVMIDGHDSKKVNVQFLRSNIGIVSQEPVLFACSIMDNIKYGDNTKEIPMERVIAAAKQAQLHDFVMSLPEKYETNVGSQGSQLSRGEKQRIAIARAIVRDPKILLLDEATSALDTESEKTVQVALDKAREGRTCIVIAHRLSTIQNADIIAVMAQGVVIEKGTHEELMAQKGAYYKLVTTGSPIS

P-gp = P-gp (Homo sapiens, UniProt P08183); test: Inhibitor of P-gp, 3H-digoxin efflux in Caco-2 cells
Chain of P-gp (P08183 whole entry): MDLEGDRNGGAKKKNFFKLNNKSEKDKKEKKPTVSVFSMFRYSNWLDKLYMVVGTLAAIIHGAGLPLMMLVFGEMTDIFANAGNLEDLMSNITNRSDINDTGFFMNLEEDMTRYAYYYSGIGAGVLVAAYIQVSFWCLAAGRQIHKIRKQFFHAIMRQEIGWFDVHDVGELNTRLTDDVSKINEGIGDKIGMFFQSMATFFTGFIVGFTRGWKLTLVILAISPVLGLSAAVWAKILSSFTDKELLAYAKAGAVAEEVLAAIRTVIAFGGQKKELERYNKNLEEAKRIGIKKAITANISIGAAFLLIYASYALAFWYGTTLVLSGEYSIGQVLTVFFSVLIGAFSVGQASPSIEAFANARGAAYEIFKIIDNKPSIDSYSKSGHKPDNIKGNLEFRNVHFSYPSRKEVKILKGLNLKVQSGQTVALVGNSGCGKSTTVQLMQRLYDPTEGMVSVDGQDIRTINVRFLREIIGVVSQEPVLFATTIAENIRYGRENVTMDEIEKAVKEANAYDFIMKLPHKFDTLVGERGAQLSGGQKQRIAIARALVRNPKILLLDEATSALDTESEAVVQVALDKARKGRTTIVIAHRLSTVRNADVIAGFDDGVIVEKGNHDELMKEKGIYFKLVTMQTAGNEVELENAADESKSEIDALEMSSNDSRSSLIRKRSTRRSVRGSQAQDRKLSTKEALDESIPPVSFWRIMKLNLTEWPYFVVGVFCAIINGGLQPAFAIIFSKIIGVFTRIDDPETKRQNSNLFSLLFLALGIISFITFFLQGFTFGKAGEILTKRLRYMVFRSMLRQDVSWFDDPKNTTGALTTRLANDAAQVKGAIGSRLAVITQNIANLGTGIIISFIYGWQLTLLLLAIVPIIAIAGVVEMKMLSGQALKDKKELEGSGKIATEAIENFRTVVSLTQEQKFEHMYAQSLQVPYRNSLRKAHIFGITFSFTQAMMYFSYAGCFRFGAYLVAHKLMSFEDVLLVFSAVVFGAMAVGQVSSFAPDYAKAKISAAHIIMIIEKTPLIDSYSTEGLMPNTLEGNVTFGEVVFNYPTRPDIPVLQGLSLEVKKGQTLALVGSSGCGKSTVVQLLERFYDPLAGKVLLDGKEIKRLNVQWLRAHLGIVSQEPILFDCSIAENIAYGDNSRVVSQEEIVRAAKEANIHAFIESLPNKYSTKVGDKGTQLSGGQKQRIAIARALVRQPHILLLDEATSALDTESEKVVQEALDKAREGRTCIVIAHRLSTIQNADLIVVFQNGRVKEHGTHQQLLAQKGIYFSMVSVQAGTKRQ

[3] = two concentrations per test article

Chain of OATP1B1 (Q9Y6L6 whole entry): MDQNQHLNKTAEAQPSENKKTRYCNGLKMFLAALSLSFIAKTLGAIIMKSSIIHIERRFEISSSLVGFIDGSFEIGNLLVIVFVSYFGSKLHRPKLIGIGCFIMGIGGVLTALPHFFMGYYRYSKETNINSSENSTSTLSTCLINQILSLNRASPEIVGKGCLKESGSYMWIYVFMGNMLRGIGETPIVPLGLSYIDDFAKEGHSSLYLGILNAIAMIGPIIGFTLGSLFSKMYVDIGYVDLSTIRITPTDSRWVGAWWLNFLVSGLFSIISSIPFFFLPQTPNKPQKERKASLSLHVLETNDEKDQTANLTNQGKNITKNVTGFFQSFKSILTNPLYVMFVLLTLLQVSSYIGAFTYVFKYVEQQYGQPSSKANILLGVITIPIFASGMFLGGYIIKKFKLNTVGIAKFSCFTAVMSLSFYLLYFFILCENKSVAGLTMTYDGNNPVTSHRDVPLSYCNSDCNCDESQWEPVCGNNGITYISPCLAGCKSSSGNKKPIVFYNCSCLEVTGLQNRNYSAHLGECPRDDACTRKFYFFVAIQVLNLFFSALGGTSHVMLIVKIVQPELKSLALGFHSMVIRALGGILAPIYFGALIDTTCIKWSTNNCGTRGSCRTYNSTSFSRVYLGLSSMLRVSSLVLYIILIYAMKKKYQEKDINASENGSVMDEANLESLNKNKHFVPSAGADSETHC

## O=C(O)Cc1ccccc1 [Phenylacetic acid, phenylacetic acid]
OATP1B1; 1 and 10 μM
  Substrate of OATP1B1: not a substrate
OATP1B1; test article 1 and 10 μM
  Substrate of OATP1B1: No
OATP1B3
  Inhibition of OATP1B3: did not inhibit
  Inhibitor of OATP1B3: No
OCT2 [1]; 1 and 10 μM
  Substrate of OCT2: not a substrate
OCT2 [1]; test article 1 and 10 μM
  Substrate of OCT2: No
BCRP; Caco-2, 1 and 10 μM
  Substrate of BCRP: not a substrate
BCRP; test article 1 and 10 μM, Caco-2 cells
  Substrate of BCRP: No
In vitro
  Papp A→B: ≥ 26.1 ×10⁻⁶ cm/s
  Papp B→A: ≥ 16.9 ×10⁻⁶ cm/s
  recovery: ≥ 90.2%
CYP1A2 mRNA
  Emax, CYP1A2 gene expression: 3.32 fold
OAT1; 750 μM
  Uptake activity remaining, OAT1: 35.2%
OAT1; read-out: Estimated IC50, OAT1, estimated from two concentrations
  potency estimated from few doses: < 750 µM
OAT1; [3]
  Inhibition of OAT1: inhibited
  Inhibitor of OAT1: Yes
MATE2K; 10 μM
  Net MATE2-K uptake remaining with inhibitor: 64.1%
  Uptake in MATE2-K cells: 84.2 pmol/min/mg
MATE2K; 1 and 10 μM
  Substrate of MATE2-K: identified as a substrate
MATE2K; test article 1 and 10 μM
  Substrate of MATE2-K: Yes
OCT2 [2]; 7500 μM
  Uptake activity remaining, OCT2: 24.5%
OCT2 [2]; read-out: Estimated IC50, OCT2, estimated from two concentrations
  potency estimated from few doses: < 7.5 mM
OCT2 [2]; [3]
  Inhibition of OCT2: inhibited
  Inhibitor of OCT2: Yes
Human hepatocytes; 4 hours
  % of time zero remaining in hepatocyte cultures: ≤ 75.9%
Human hepatocytes; 24 hours
  % of time zero remaining in hepatocyte cultures: ≤ 2.31%
BSEP
  Substrate of BSEP: No
P-gp; Caco-2, two concentrations per test article
  Inhibitor of P-gp: weak inhibitor
P-gp; higher test concentration
  Remaining P-gp activity, % of the control: 75.6%
P-gp; lower test concentration
  Remaining P-gp activity, % of the control: 85.9%
P-gp; read-out: Estimated IC50, P-gp, estimated from two concentrations, Caco-2 cells
  potency estimated from few doses: > 7.5 mM
P-gp; two concentrations per test article, Caco-2 cells
  Inhibitor of P-gp: Yes
